Values quoted from earlier work in patent US20100087769A1, “BIOCIDIC MEDICAL DEVICES, IMPLANTS AND WOUND DRESSINGS” (OPLON B.V., priority 2007, published 2010).
Entries after “also recorded” stand apart in the source; their conditions may differ. Read-outs that look alike come from different tables or passages of the source.

What was measured:
[1] = system: aerobic gram-negative bacilli, P. aeruginosa; details: spectrum as listed in the cell
[2] = not given; remark: listed apart in the source
[3] = system: other Candida spp. and fungi
[4] = system: Aspergillus or Fusarium spp.; details: powder, 6 million units/g; four burn patients
[5] = topical
MRSA = details: topical; 1% silver sulfadiazine, 2% mupirocin, 2% fusidic acid

Question: For `NCc1ccc(S(N)(=O)=O)cc1` [Mafenide acetate], which Antibacterial activity [1] is on record?
Answer: Broad spectrum against

Question: And the reduction in mortality (burns of 40 to 79% TBSA)?
Answer: greater than 10%

Question: And the effect on mortality (patients with smaller or much larger burn injuries)?
Answer: only a minimal effect

Question: What about the Major toxicity ([2]; in vivo) of the same molecule?
Answer: Metabolic

Question: Which results are given for `C[C@@H]1[C@H](O)[C@@H](C)/C=C/C=C/CC/C=C/C=C/C=C/C=C/C(O[C@H]2O[C@H](C)[C@@H](O)[C@H](N)[C@@H]2O)CC2O[C@](O)(CC(O)C(O)CCC(O)CC(O)CC(O)CC(=O)O[C@H]1C)CC(O)C2C(=O)O` (stereo partly drawn) [Nystatin]?
Answer: concentration that inhibits (Candida albicans): 3 µg/mL; concentration needed to inhibit [3]: 6.25 µg/mL; treatment of angioinvasive fungal infections [4]: effective

Question: What does the source list for `O=[N+]([O-])[O-].[Ag+]` [Silver nitrate]?
Answer: Antibacterial activity [1]: Bacteriostatic against; also recorded: limited antifungal; Eschar penetration [5]: None; Major toxicity ([2]; topical): Electrolyte

Question: For `CC(=O)O[C@H]1C[C@@]2(C)[C@@H](C[C@@H](O)[C@H]3[C@@]4(C)CC[C@@H](O)[C@@H](C)[C@@H]4CC[C@@]32C)/C1=C(\CCC=C(C)C)C(=O)O` [fusidic acid], which “reducing local wound bacterial counts and preventing systemic infection” value (MRSA) is on record?
Answer: equally effective

Question: Which “reducing local wound bacterial counts and preventing systemic infection” value (MRSA) does the source give for `C/C(=C\C(=O)OCCCCCCCCC(=O)O)C[C@@H]1OC[C@H](C[C@@H]2O[C@H]2[C@@H](C)[C@H](C)O)[C@@H](O)[C@H]1O` [mupirocin, pseudomonic acid A] here?
Answer: equally effective
